Experimental data reported in patent US6514993B1, “Serotonin 5-HT1A and dopamin D2 receptor ligands” (H. Lundbeck A/S, priority 1994, dated 2003).
pIC50: −log10 of the molar value. Structures can show the parent of a compound that is named as a salt.

Key:
dopamine D2 receptors = dopamine D2 receptors (Rattus norvegicus, UniProt P61169); experiment: Inhibition of 3H-spiroperidol binding to dopamine D2 receptors in rat brain in vitro; conditions: 3H-spiroperidol 0.5 nM, membranes from rat corpus striatum; read-out: 3H Spiroperidole (D2) binding IC50
Description: Inhibition of 3H-spiroperidol Binding to Dopamine D2 Receptors in Rat Brain in vitro
By this method the inhibition by drugs of the binding of the D2 antagonist ^3H-spiroperidol (0.5 nM) to D2 receptors in membranes from rat corpus striatum is determined in vitro. Accordingly, this is a test for affinity for the dopamine D2 receptor.

5-HT1A receptors [1] = target: T1, 5-HT1A receptors (Rattus norvegicus, UniProt P19327); experiment: Inhibition of 3H-8-OH-DPAT binding to serotonin 5-HT1A receptors in rat brain in vitro; design: 5-HT1A receptors in membranes from rat brain minus cerebellum; from tissue; host or cells: rat brain minus cerebellum (membranes); conditions: 3H-8-OH-DPAT 1 nM, membranes from rat brain minus cerebellum
T1 sequence (P19327 1-422): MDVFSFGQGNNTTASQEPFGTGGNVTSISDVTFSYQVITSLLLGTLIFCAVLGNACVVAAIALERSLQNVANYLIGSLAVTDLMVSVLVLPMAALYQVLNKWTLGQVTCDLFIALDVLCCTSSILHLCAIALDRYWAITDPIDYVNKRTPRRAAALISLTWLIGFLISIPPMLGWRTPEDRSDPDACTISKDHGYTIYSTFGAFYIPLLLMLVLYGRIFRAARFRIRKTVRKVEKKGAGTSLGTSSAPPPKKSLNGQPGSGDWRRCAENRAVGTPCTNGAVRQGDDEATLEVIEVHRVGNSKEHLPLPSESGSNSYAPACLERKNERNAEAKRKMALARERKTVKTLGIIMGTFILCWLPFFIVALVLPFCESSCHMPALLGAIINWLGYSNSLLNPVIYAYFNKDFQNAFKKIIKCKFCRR
Description: Inhibition of ^3H8-OH-DPAT Binding to Serotonin 5-HT1A Receptors in Rat Brain in vitro
By this method the inhibition by drugs of the binding of the 5-HT1A agonist 3H-8-OH-DPAT (1 nM) to 5-HT1A receptors in membranes from rat brain minus cerebellum is determined in vitro. Accordingly, this is a test for affinity for the 5-HT1A receptor. The test was performed as described by Hyttel et al., Drug Dev. Res. 1988, 15, 389-404.

Cataleptogenic effect = experiment: Cataleptogenic effect; design: species or system rats; conditions: rat, in vivo; 1-6 h, sc; read-out: Catalepsy ED50
Text: Evaluation of cataleptogenic effects of the compounds of the invention was made according to the method of Sanchez, C. et al.; Drug Dev. Res. 1991, 22, 239-250.

5-HT1A receptors [2] = target: T1, 5-HT1A receptors; design: antagonist effects of a test compound on 5-HT1A receptors in vivo; from tissue; host or cells: whole animal (rat), in vivo behavioural test; conditions: partial 5-HT1A agonists; cited from earlier work

dopamine D2 receptors, sequence (P61169 1-415 isoform P61169-2): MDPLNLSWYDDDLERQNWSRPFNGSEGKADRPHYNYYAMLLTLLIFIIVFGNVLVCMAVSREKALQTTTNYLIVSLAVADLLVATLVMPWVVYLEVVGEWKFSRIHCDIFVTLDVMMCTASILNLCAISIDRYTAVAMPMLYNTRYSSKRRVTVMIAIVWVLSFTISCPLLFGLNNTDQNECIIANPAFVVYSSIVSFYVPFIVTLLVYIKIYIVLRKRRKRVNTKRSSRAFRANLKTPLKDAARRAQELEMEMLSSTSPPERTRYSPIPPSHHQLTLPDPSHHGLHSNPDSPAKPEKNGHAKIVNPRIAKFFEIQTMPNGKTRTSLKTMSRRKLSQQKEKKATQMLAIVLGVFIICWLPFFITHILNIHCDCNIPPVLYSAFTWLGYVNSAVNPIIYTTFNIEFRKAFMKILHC

CC(C)Oc1ccccc1C1=CCN(CCCCN2CCN(c3ccc(F)cc3)C2=O)CC1.O=C(O)C(=O)O [Compound 9b, 3-(4-Fluorophenyl)-1-[4-[4-[2-(2-propyloxy)phenyl]-1,2,3,6-tetrahydropyridin-1-yl]butan-1-yl]-2-imidazolidinone oxalate]
melting point: 150 to 152 °C
pIC50 (dopamine D2 receptors): 7.96
pIC50 (5-HT1A receptors [1]): 8.55
ED50 (Cataleptogenic effect): > 37 µmol/kg

O=C1N(CCCCN2CCN(c3ccccc3OS(=O)(=O)C(F)(F)F)CC2)CCN1C1CCCCC1 (as salt: hydrochloride) [Compound 7b, 3-Cyclohexyl-1-[4-[4-[2-(2-trifluoromethylsulfonyloxy)phenyl]-1-piperazinyl]butan-1-yl]-2-imidazolidinone, hydrochloride]
melting point: 153 to 154 °C

CC(C)Oc1ccccc1C1=CCN(CCCCN2CCN(C3CCCCC3)C2=O)CC1.O=C(O)C(=O)O [Compound 9a, 3-Cyclohexyl-1-[4-[4-[2-(2-propyloxy)phenyl]-1,2,3,6-tetrahydropyridin-1-yl]butan-1-yl]-2-imidazolidinone Oxalate]
pIC50 (dopamine D2 receptors): 8.06
pIC50 (5-HT1A receptors [1]): 8.05
ED50 (Cataleptogenic effect): > 38 µmol/kg

CC(C)Oc1ccccc1C1CCN(CCCCN2CCN(C(C)C)C2=O)CC1.O=C(O)C(=O)O [Compound 6d, 3-(2-Propyl)-1-[4-[4-[2-(2-propyloxy)phenyl]-1-piperidinyl]-1-butyl]-2-imidazolidinone, oxalate]
melting point: 82 to 84 °C
pIC50 (dopamine D2 receptors): 8.11
pIC50 (5-HT1A receptors [1]): 8.30
ED50 (Cataleptogenic effect): > 41 µmol/kg

CC(C)Oc1ccccc1C1CCN(CCCCn2ccn(C3CCCCC3)c2=O)CC1.O=C(O)C(=O)O [Compound 6h, 3-Cyclohexyl-1-[4-[4-[2-(2-propyloxy)phenyl]-1-piperidinyl]butan-1-yl]-1,3-dihydroimidazol-2-one, oxalate]
melting point: 68 to 71 °C
pIC50 (dopamine D2 receptors): 8.00
pIC50 (5-HT1A receptors [1]): 8.39
ED50 (Cataleptogenic effect): > 38 µmol/kg

O=C1CC2(CCCC2)CC(=O)N1CCCCN1CCN(c2ncccn2)CC1 [buspirone, 8-[4-[4-(2-pyrimidyl)-1-piperazinyl]butyl]-8-azaspiro[4,5]decane-7,9-dione]
Inhibition of 5-MeO-DMT-induced 5-HT syndrome (general statement) (5-HT1A receptors [2]): inhibit the characteristic 5-HT syndrome produced by 5-MeO DMT

CC(C)Oc1ccccc1C1=CCN(CCCCn2ccn(C34CC5CC(CC(C5)C3)C4)c2=O)CC1.O=C(O)C(=O)O
melting point: 104 to 109 °C

CC(C)Oc1ccccc1N1CCN(CCCCN2CCN(c3ccc(F)cc3)C2=O)CC1 [Compound 4b, 3-(4-Fluorophenyl)-1-[4-[4-[2-(2-propyloxy)phenyl]-1-piperazinyl]butan-1-yl]-2-imidazolidinone]
melting point: 135 to 137 °C
pIC50 (dopamine D2 receptors): 8.41
pIC50 (5-HT1A receptors [1]): 8.66
ED50 (Cataleptogenic effect): > 44 µmol/kg

CC(C)Oc1ccccc1C1CCN(CCCCN2CCN(C3CCCCC3)C2=O)CC1.O=C(O)C(=O)O [Compound 6b, 3-Cyclohexyl-1-[4-[4-[2-(2-propyloxy)phenyl]-1-piperidinyl]butan-1-yl]-2-imidazolidinone, oxalate]
melting point: 138 to 141 °C
pIC50 (dopamine D2 receptors): 8.06
pIC50 (5-HT1A receptors [1]): 8.27
ED50 (Cataleptogenic effect): > 38 µmol/kg

CC(C)Oc1ccccc1C1CCN(CCCCCCN2CCN(C3CCCCC3)C2=O)CC1.O=C(O)C(=O)O [Compound 6e, 3-Cyclohexyl-1-[6-[4-[2-(2-propyloxy)phenyl]-1-piperidinyl]-1-hexyl]-2-imidazolidinone, oxalate]
melting point: 77 to 79 °C
pIC50 (dopamine D2 receptors): 7.80
pIC50 (5-HT1A receptors [1]): 7.70
ED50 (Cataleptogenic effect): > 33 µmol/kg

O=C1N(CCCCN2CCN(c3ccccc3OC3CCCC3)CC2)CCN1c1ccc(F)cc1 [Compound 4d, 1-[4-[4-(2-Cyclopentyloxyphenyl)-1-piperazinyl]butan-1-yl]-3-(4-fluorophenyl)-2-imidazolidinone]
melting point: 111 to 116 °C
pIC50 (dopamine D2 receptors): 7.82
pIC50 (5-HT1A receptors [1]): 8.40
ED50 (Cataleptogenic effect): > 42 µmol/kg

O=C1N(CCCCN2CCN(c3ccccc3OS(=O)(=O)C(F)(F)F)CC2)CCN1c1ccc(F)cc1 [Compound 7c, 3-(4-Fluorophenyl)-1-[4-[4-[2-(2-trifluoromethylsulfonyloxy)phenyl]-1-piperazinyl]butan-1-yl]-2-imidazolidinone]
melting point: 68 to 70 °C
pIC50 (dopamine D2 receptors): 7.24
pIC50 (5-HT1A receptors [1]): 7.82
ED50 (Cataleptogenic effect): > 37 µmol/kg

CC(C)Oc1ccccc1C1CCN(CCCCn2ccn(C34CC5CC(CC(C5)C3)C4)c2=O)CC1.O=C(O)C(=O)O
melting point: 116 to 122 °C

CC(C)Oc1ccccc1C1CCN(CCCCN2CCN(c3ccc(F)cc3)C2=O)CC1.O=C(O)C(=O)O [Compound 6a, 3-(4-Fluorophenyl)-1-[4-[4-[2-(2-propyloxy)phenyl]-1-piperidinyl]butan-1-yl]-2-imidazolidinone, Oxalate]
pIC50 (dopamine D2 receptors): 8.10
pIC50 (5-HT1A receptors [1]): 8.32
ED50 (Cataleptogenic effect): > 44 µmol/kg

O=C1N(CCCCN2CCC(c3ccccc3OS(=O)(=O)C(F)(F)F)CC2)CCN1c1ccc(F)cc1 [Compound 7a, 3-(4-Fluorophenyl)-1-[4-[4-[2-(2-trifluoromethylsulfonyloxy)phenyl]-1-piperidinyl]butan-1-yl]-2-imidazolidinone]
pIC50 (dopamine D2 receptors): 7.39
pIC50 (5-HT1A receptors [1]): 7.43

CC(C)Oc1ccccc1C1CCN(CCCN2CCN(C3CCCCC3)C2=O)CC1.O=C(O)C(=O)O [Compound 6c, 3-Cyclohexyl-1-[3-[4-[2-(2-propyloxy)phenyl]-1-piperidinyl]-1-propyl]-2-imidazolidinone, oxalate]
melting point: 136 to 139 °C
pIC50 (dopamine D2 receptors): 6.96
pIC50 (5-HT1A receptors [1]): 7.46

O=C(CCCN1CCC(O)(c2ccc(Cl)cc2)CC1)c1ccc(F)cc1 [haloperidol, reference compound]
ED50 (Cataleptogenic effect): 0.36 µmol/kg

CC(C)(C)COc1ccccc1C1CCN(CCCCN2CCN(C3CCCCC3)C2=O)CC1.O=C(O)C(=O)O
melting point: 162 to 168 °C

CC(C)Oc1ccccc1C1=CCN(CCCCn2ccn(C3CCCCC3)c2=O)CC1 [Compound 9d, 3-Cyclohexyl-1-[4-[4-[2-(2-propyloxy)phenyl]-1,2,3,6-tetrahydropyridin-1-yl]butan-1-yl]-2,3-dihydroimidazol-2-one]
pIC50 (dopamine D2 receptors): 7.57
pIC50 (5-HT1A receptors [1]): 7.59

CC(C)Oc1ccccc1N1CCN(CCCN2CCN(c3ccccc3)C2=O)CC1 [Compound 4e, 1-[3-[4-(2-(2-propyloxy)phenyl)-1-piperazinyl]-1-propyl]-3-phenyl-2-imidazolidinone]
melting point: 167 to 168 °C
pIC50 (dopamine D2 receptors): 7.62
pIC50 (5-HT1A receptors [1]): 7.40
ED50 (Cataleptogenic effect): > 34 µmol/kg

Cl.Cl.O=C1N(CCCCN2CCN(c3ccccc3OC3CCCC3)CC2)CCN1C1CCCCC1 [Compound 4c, 3-Cyclohexyl-1-[4-[4-(2-cyclopentyloxyphenyl)-1-piperazinyl]butan-1-yl]-2-imidazolidinone, dihydrochloride]
melting point: 182 to 193 °C
pIC50 (dopamine D2 receptors): 7.89
pIC50 (5-HT1A receptors [1]): 8.27
ED50 (Cataleptogenic effect): > 37 µmol/kg

O=C1N(CCCCN2CCN(c3ccccc3OS(=O)(=O)C(F)(F)F)CC2)CCN1C1CCCCC1 [Compound 7b, 3-Cyclohexyl-1-[4-[4-[2-(2-trifluoromethylsulfonyloxy)phenyl]-1-piperazinyl]butan-1-yl]-2-imidazolidinone, hydrochloride]
pIC50 (dopamine D2 receptors): 7.31
pIC50 (5-HT1A receptors [1]): 7.38
ED50 (Cataleptogenic effect): > 35 µmol/kg

CC(C)Oc1ccccc1N1CCN(CCCCN2CCN(C3CCCCC3)C2=O)CC1.O=C(O)C(=O)O [Compound 4a, 3-Cyclohexyl-1-[4-[4-[2-(2-propyloxy)phenyl]-1-piperazinyl]butan-1-yl]-2-imidazolidinone, Oxalate]
pIC50 (dopamine D2 receptors): 8.19
pIC50 (5-HT1A receptors [1]): 8.74
ED50 (Cataleptogenic effect): > 38 µmol/kg

O=C(O)C(=O)O.O=C1N(CCCCN2CCC(c3ccccc3OCC3CC3)CC2)CCN1C1CCCCC1 [Compound 6f, 3-Cyclohexyl-1-[4-[4-[2-(cyclopropylmethoxy)phenyl]-1-piperidinyl]butan-1-yl]-2-imidazolidinone, oxalate]
melting point: 186 to 193 °C
pIC50 (dopamine D2 receptors): 7.43
pIC50 (5-HT1A receptors [1]): 7.59
